System: flox-stop-flox tdTomato construct
Experiment: (-27)GFP-Cre protein delivery, tdTomato expression in Ai14 mouse brain
Assay type: in vivo
Settings: (-27)GFP-Cre/LNP weight ratio 1/4; four i.v. injections of 50 μg protein; brain slices, fluorescence imaging
Source text: GFP fused Cre recombinase was chosen as a model protein for the study, using the Ail4 model mouse line (FIG. 4A). The Ail4 mouse line contains a flox-stop-flox tdTomato construct. The successful intracellular delivery of Cre protein into the cells of Ail4 mouse leads to the gene recombination and turns on the tdTomato expression which can be directly visualized as red fluorescence signal without additional staining. Here, (−27)GFP-Cre protein was used. NT1-O14B LNPs doped with PBA-Q76-O16B was chosen, as these nanoparticles could successfully deliver (−27)GFP-Cre. The weight ratio of NT1-O14B and PBA-Q76-O16B was fixed at 3:7, based on the results observed from the AmB and ASO delivery. Lipid formulations were prepared using the approaches described for the formulation for ASO delivery. Briefly, the (−27)GFP-Cre protein was mixed with LNPs at a weight ratio of 1/4 and incubated the solution for 15 min at room temperature before intravenous injection. Mice were injected four times with a dose of 50 μg protein per injection. Five days after the last injection, the mice were sacrificed and brain tissues were collected, fixed, and dehydrated. Then the tissues were cryo-sectioned into […] slices and counter-stained with DAPI for fluorescence imaging.

CCCCCCCCCCCCSSCCOC(=O)CC[N+](CCC(=O)OCCSSCCCCCCCCCCCC)(CCN1CCCC1)Cc1ccc(B(O)O)cc1 [PBA-Q76-O16B]
tdTomato expression in the brain: no tdTomato expression

Source: patent publication US11666539B2, “Synthetic lipid-like materials for brain delivery” (Trustees of Tufts College, priority 2020, dated 2023)
